Tests used:
[1] = Relaxivity r1p in human plasma, 37° C.; assay type: physicochemical; settings: for r1p at 0.47 T 37° C., human plasma: 0.47 T (20 MHz); for r1p at 1.41 T 37° C., human plasma: 1.41 T (60 MHz)
Procedure: (§1) The relaxometric properties of some representative complex compounds according to the invention have been determined at different magnetic field strengths, e.g. including 0.47 and 1.41 T, at 37° C. and in different media (physiologic solution and human plasma) and compared with relaxivity values measured, at the same conditions, for some Gd-Complex of the market having an analogous cyclic coordination cage.
(§2) The longitudinal water proton relaxation rate (R1=1/T1) was measured at 0.47 T with a Minispec MQ-20 spectrometer (Bruker Biospin, Germany) operating at a proton Larmor frequency of 20 MHz; MR experiments at 1.41 T were performed using a Minispec MQ-60 spectrometer (Bruker Biospin, Germany) operating at a proton Larmor frequency of 60 MHz.
(§3) All test articles were used as supplied and diluted in the selected medium (physiologic solution or human plasma) by weighting the required amount of paramagnetic chelated complex to get a 5 or 10 mM starting solution.
(§4) Five different concentration samples (0.1, 0.25, 0.5, 0.75 and 1 mM) for each medium have been prepared by further dilution of the starting 5 or 10 mM solution.
(§5) Relaxivity measurements were performed at 0.47 T and 1.41 T at a preset temperature sample of 37° C., kept constant by means of a thermostatic bath connected to the sample holder of the spectrometer. The five sample solutions have been preliminary pre-heated at 37° C. in an external thermostatic bath and then left 10 minutes inside the internal bath to assure the stabilization of the temperature. Longitudinal relaxation time T1 was measured by means of a standard inversion recovery sequence, where the inversion time (TI) was varied from 10 ms to at least 5 times T1 in 15 steps. Statistical analysis (mono-exponential fitting for T1 measurement, linear fitting for the evaluation of longitudinal relaxivity) was performed by Mathematica® (Wolfram, USA). Errors on the estimated parameters were evaluated by the fitting procedure.

[2] = Relaxivity r1p in physiologic solution (saline), 37° C.; assay type: physicochemical; settings: for r1p at 0.47 T 37° C., saline: 0.47 T (20 MHz); for r1p at 1.41 T 37° C., saline: 1.41 T (60 MHz)
Procedure: as §1, §2, §3, §4, §5

SMILES: O=C(O)CN1CCN(CC(=O)O)CCN(CC(O)CN(CC(=O)O)C(CO)CO)CCN(CC(=O)O)CC1 (centres unmarked) [Chelate Complex 13]
- r1p at 0.47 T 37° C., human plasma [1]: 7.5 mM⁻¹ s⁻¹
- r1p at 1.41 T 37° C., human plasma [1]: 7.1 mM⁻¹ s⁻¹
- r1p at 0.47 T 37° C., saline [2]: 5.8 mM⁻¹ s⁻¹
- r1p at 1.41 T 37° C., saline [2]: 5.9 mM⁻¹ s⁻¹

SMILES: O=C(O)CN1CCN(CC(=O)O)CCN(CC(O)CN(CCOCCO)CCOCCO)CCN(CC(=O)O)CC1 (centres unmarked) [Chelate Complex 14]
- r1p at 0.47 T 37° C., human plasma [1]: 8.8 mM⁻¹ s⁻¹
- r1p at 1.41 T 37° C., human plasma [1]: 8.0 mM⁻¹ s⁻¹
- r1p at 0.47 T 37° C., saline [2]: 6.9 mM⁻¹ s⁻¹
- r1p at 1.41 T 37° C., saline [2]: 6.5 mM⁻¹ s⁻¹

SMILES: O=C(O)CN1CCN(CC(=O)O)CCN(CC(O)CNCP(=O)(O)O)CCN(CC(=O)O)CC1 (centres unmarked) [Chelate Complex 2]
- r1p at 0.47 T 37° C., human plasma [1]: 8.5 mM⁻¹ s⁻¹
- r1p at 1.41 T 37° C., human plasma [1]: 7.5 mM⁻¹ s⁻¹
- r1p at 0.47 T 37° C., saline [2]: 7.0 mM⁻¹ s⁻¹
- r1p at 1.41 T 37° C., saline [2]: 6.5 mM⁻¹ s⁻¹

SMILES: CC(O)CN1CCN(CC(=O)O)CCN(CC(=O)O)CCN(CC(=O)O)CC1 (centres unmarked) [ProHance ®, Gd-HPDO3A, reference compound]
- r1p at 0.47 T 37° C., human plasma [1]: 4.9 mM⁻¹ s⁻¹
- r1p at 1.41 T 37° C., human plasma [1]: 4.15 mM⁻¹ s⁻¹
- r1p at 0.47 T 37° C., saline [2]: 3.5 mM⁻¹ s⁻¹
- r1p at 1.41 T 37° C., saline [2]: 3.1 mM⁻¹ s⁻¹

SMILES: O=C([O-])CN1CCN(CC(=O)O)CCN(CC(=O)O)CCN(CC(O)CNC(CCc2ccccc2)P(=O)(O)[O+]=[Na])CC1 (centres unmarked) [Chelate Complex 6]
- r1p at 0.47 T 37° C., human plasma [1]: 13.8 mM⁻¹ s⁻¹
- r1p at 1.41 T 37° C., human plasma [1]: 11.9 mM⁻¹ s⁻¹
- r1p at 0.47 T 37° C., saline [2]: 8.3 mM⁻¹ s⁻¹
- r1p at 1.41 T 37° C., saline [2]: 8.2 mM⁻¹ s⁻¹

SMILES: O=C(O)CN1CCN(CC(=O)O)CCN(CC(=O)O)CCN(CC(=O)O)CC1 [Doratem ®, Gd-DOTA, reference compound]
- r1p at 0.47 T 37° C., human plasma [1]: 4.5 mM⁻¹ s⁻¹
- r1p at 1.41 T 37° C., human plasma [1]: 3.6 mM⁻¹ s⁻¹
- r1p at 0.47 T 37° C., saline [2]: 3.6 mM⁻¹ s⁻¹
- r1p at 1.41 T 37° C., saline [2]: 3.2 mM⁻¹ s⁻¹

SMILES: CCOP(=O)(O)CN(Cc1ccccc1)CC(O)CN1CCN(CC(=O)O)CCN(CC(=O)O)CCN(CC(=O)O)CC1 (centres unmarked) [Chelate Complex 8]
- r1p at 0.47 T 37° C., human plasma [1]: 10.2 mM⁻¹ s⁻¹
- r1p at 1.41 T 37° C., human plasma [1]: 9.0 mM⁻¹ s⁻¹
- r1p at 0.47 T 37° C., saline [2]: 7.4 mM⁻¹ s⁻¹
- r1p at 1.41 T 37° C., saline [2]: 7.3 mM⁻¹ s⁻¹

SMILES: CN(CC(O)CN1CCN(CC(=O)O)CCN(CC(=O)O)CCN(CC(=O)O)CC1)CC(O)C(O)C(O)C(O)CO (centres unmarked) [Chelate Complex 21]
- r1p at 0.47 T 37° C., human plasma [1]: 8.5 mM⁻¹ s⁻¹
- r1p at 1.41 T 37° C., human plasma [1]: 8.3 mM⁻¹ s⁻¹
- r1p at 0.47 T 37° C., saline [2]: 6.1 mM⁻¹ s⁻¹
- r1p at 1.41 T 37° C., saline [2]: 6.1 mM⁻¹ s⁻¹

SMILES: NCC(O)CN1CCN(CC(=O)O)CCN(CC(=O)O)CCN(CC(=O)O)CC1 (centres unmarked) [Comparative 1, reference compound]
- r1p at 0.47 T 37° C., human plasma [1]: 6.25 mM⁻¹ s⁻¹
- r1p at 1.41 T 37° C., human plasma [1]: 5.3 mM⁻¹ s⁻¹
- r1p at 0.47 T 37° C., saline [2]: 4.3 mM⁻¹ s⁻¹
- r1p at 1.41 T 37° C., saline [2]: 3.8 mM⁻¹ s⁻¹

SMILES: O=C(O)CN1CCN(CC(=O)O)CCN(CC(O)CN(CC(=O)O)C2CCCCC2)CCN(CC(=O)O)CC1 (centres unmarked) [Chelate Complex 19]
- r1p at 0.47 T 37° C., human plasma [1]: 9.1 mM⁻¹ s⁻¹
- r1p at 1.41 T 37° C., human plasma [1]: 8.05 mM⁻¹ s⁻¹
- r1p at 0.47 T 37° C., saline [2]: 6.5 mM⁻¹ s⁻¹
- r1p at 1.41 T 37° C., saline [2]: 6.1 mM⁻¹ s⁻¹

SMILES: O=C(O)CN1CCN(CC(=O)O)CCN(CC(O)CN2CC(CO)(CO)C(O)C(CO)(CO)C2)CCN(CC(=O)O)CC1 (centres unmarked) [Chelate Complex 5]
- r1p at 0.47 T 37° C., human plasma [1]: 9.6 mM⁻¹ s⁻¹
- r1p at 1.41 T 37° C., human plasma [1]: 8.9 mM⁻¹ s⁻¹
- r1p at 0.47 T 37° C., saline [2]: 7.7 mM⁻¹ s⁻¹
- r1p at 1.41 T 37° C., saline [2]: 7.7 mM⁻¹ s⁻¹

Reference: patent publication US10781188B2, “Contrast agents” (BRACCO IMAGING S.P.A., priority 2015, dated 2020)
